Data taken from PMC9850727, “Benzoxazolone-5-Urea Derivatives as Human Soluble Epoxide Hydrolase (sEH) Inhibitors” (ACS Omega, 2023).

What was measured:
monocytes = experiment: Cytotoxic activity in monocytes (MTT, metabolic activity after 24 h); format: cell-based, human; settings: metabolic activity (MTT) after 24 h, data not shown in main text (Figure S52)
Source text: The benzyl group appears as a frequently recurring chemical fragment in the architecture of amide or urea-type sEH inhibitors.[4] Therefore, we extracted this common fragment and combined it with benzoxazolone using a urea backbone with the aim of improving a sEH inhibitory potency in the newly designed analogues (Table 2). […] This implies that voluminous substituents at this position are better accommodated at the binding site. […] Taken together, 2- or appropriate 2,4-disubstitution patterns govern potent sEH inhibition in this series. Overall, the preliminary SAR in this work indicated a new favorable structural feature at the right- and left-hand side of the compounds to achieve potent sEH inhibition. Another aspect of characterizing the compounds is determining their cytotoxic activity; for this purpose, we used monocytes due to their high expression of sEH. By applying 33 and 38 to monocytes and measuring the metabolic activity after 24 h, we could exclude cytotoxic activity up to concentrations of 1 μM (data not shown).
The cytotoxic activities of compounds were assessed as previously described.[29] […] The absorbance was determined at 570 nm using a Multiskan Spectrum microplate reader (Thermo Fisher Scientific, Schwerte, Germany). […]

human recombinant sEH = target: T1, human recombinant sEH (Homo sapiens, UniProt P34913); experiment: Cell-free sEH activity assay (fluorescence-based, PHOME substrate); format: biochemical; settings: mean ± SEM, n = 3, benzoxazolone-ureas (Table 2); for sEH activity % of control at 1 μM / sEH activity % of control at 10 μM: residual activity; for IC50: cell-free assay
T1 construct: made in house; host or cells: Sf9 cells infected with recombinant baculovirus (from Dr. Bruce Hammock, UC Davis)
T1 sequence (P34913 1-555): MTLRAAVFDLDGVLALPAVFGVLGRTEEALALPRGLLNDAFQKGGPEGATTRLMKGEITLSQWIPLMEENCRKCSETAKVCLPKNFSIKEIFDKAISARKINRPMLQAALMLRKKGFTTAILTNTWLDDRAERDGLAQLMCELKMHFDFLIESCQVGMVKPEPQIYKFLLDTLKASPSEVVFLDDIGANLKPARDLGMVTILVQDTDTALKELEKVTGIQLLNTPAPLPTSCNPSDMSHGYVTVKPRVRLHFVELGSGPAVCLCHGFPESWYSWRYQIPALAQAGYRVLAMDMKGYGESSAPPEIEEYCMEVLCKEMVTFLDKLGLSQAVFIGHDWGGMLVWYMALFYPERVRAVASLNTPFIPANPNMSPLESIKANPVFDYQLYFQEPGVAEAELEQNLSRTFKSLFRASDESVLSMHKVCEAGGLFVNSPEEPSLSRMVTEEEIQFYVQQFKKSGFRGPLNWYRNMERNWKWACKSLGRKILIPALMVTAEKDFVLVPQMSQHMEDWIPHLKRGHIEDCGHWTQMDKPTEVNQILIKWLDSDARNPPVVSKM
Source text: Inspired by the reported crystallographic screening studies,[12],[13],[15] a series of aryl amide (12, 15–21) or urea (31–39) derivatives with a benzoxazolone head group were synthesized and assessed for inhibition of human recombinant sEH in a cell-free activity assay[27] (Tables 1 and 2). […] Consequently, compounds in which the amide group is attached to the benzoxazolone ring through NH could outperform their direct reversed analogues by more favorable interactions in the central pocket of sEH. In addition, simple methylation of the benzoxazolone NH in 17–18 engendered noticeable differences in sEH inhibition relative to the unmethylated counterparts 15–16, implying that a free NH with H-bond donor property at this location is also important for the observed potency. Subsequently, the positioning of the amide group at the 5-position of the benzoxazolone ring also retained the inhibitory activity.
Human recombinant sEH was expressed and purified as published before.[31] Briefly, Sf9 cells were infected with a recombinant baculovirus (obtained from Dr. Bruce Hammock, University of California, Davis, CA). Following 72 h of transfection, the cells were centrifuged and then sonicated (3 × 10 s at 4 °C) in lysis buffer comprising glycerol (10%), NaHPO4 (50 mM, pH 8), leupeptin (10 μg/mL), NaCl (300 mM), phenylmethanesulfonyl fluoride (1 mM), EDTA (1 mM), and soybean trypsin inhibitor (60 μg/mL). After centrifugation at 100,000g (60 min, 4 °C), the obtained supernatants were subjected to a benzylthio-sepharose-affinity chromatography and eluted with 4-fluorochalcone oxide in PBS containing 1 mM DTT and 1 mM EDTA for purification of sEH. The enzyme was dialyzed and concentrated (Millipore Amicon-Ultra-15 centrifugal filter), and the solution was further assayed for total protein content by a protein detection kit (Bio-Rad Laboratories, Munich, Germany). The epoxide hydrolase activity was measured using a fluorescence-based assay, as reported before.[27] In brief, sEH was diluted in Tris buffer (25 mM, pH 7) containing BSA (0.1 mg/mL) to a suitable enzyme concentration and pretreated with test compounds or 0.1% DMSO as vehicle for 10 min at room temperature. To start the reaction, 50 μM of the PHOME substrate (3-phenyl-cyano(6-methoxy-2-naphthalenyl)methyl ester-2-oxiraneacetic acid), a nonfluorescent compound that is enzymatically converted by sEH into fluorescent 6-methoxy-naphtaldehyde, was added at RT. The reaction was stopped by addition of ZnSO4 (200 mM) after 60 min, and fluorescence was measured (λem 465 nm, λex 330 nm) by employing a NOVOstar microplate reader (BMG LABTECH GmbH, Ortenberg, Germany). If required, the potential fluorescence of test compounds was subtracted from the readout.

## O=C(NCc1ccc(Cl)cc1Cl)Nc1ccc2oc(=O)[nH]c2c1 [Compound 38, 1-[(2,4-Dichlorophenyl)methyl]-3-(2-oxo-2,3-dihydro-1,3-benzoxazol-5-yl)urea]
monocytes
  concentration up to which cytotoxic activity is excluded: > 1 µM
other
  melting point: 260.9 °C (dec.)
Human recombinant sEH
  sEH activity % of control at 1 μM: 0.0 ± 0.0 % of control
  sEH activity % of control at 10 μM: 0.0 ± 0.0 % of control
  IC50: 0.7 ± 0.08 nM

## O=C(NCc1ccccc1OC(F)(F)F)Nc1ccc2oc(=O)[nH]c2c1 [Compound 33, 3-(2-Oxo-2,3-dihydro-1,3-benzoxazol-5-yl)-1-{[2-(trifluoromethoxy)phenyl]methyl}urea]
monocytes
  concentration up to which cytotoxic activity is excluded: > 1 µM
Human recombinant sEH
  sEH activity % of control at 1 μM: 1.9 ± 3.2 % of control
  sEH activity % of control at 10 μM: 6.8 ± 5.9 % of control
  IC50: 0.39 ± 0.1 nM
